These results are taken from patent US20090271892A1, “LYSOPHOSPHATIDIC ACID ACYLTRANSFERASE GENES AND USES THEREOF” (priority 2006, published 2009).

Data set [1] has as its target Brassica napus LPAAT (BnLPAAT) (Brassica napus, UniProt Q9XFW4). Nature of the data set: Competitive LPAAT assay using C18:1-CoA and C19CA-CoA. It counts as biochemical. As to the method: (§1) The ^3H-oleoyl-lysophosphatidic acid (^3HLPA, ref. NET1100; 600 μM, 28 mCi mmol^−1) and ^14C-Oleoyl-CoA (^14CC18:1-CoA, ref. NET651A; 300 μM, 11 mCi mmol^−1) radio-labeled substrates were purchased from Perkin Elmer. Assays were carried out in a final volume of 300 μl and contained Tris/HCl (100 mM, pH7.5), Triton X-100 (0.01% w/v), BSA (1 mg/ml), ascorbic acid (10 mM), EDTA (2 mM), 100 μl LPA and 50 μl acyl-CoA. The reaction was started by the addition of 30 μl of microsomes, and conducted in a glass vial placed in a Eppendorf Thermomixer-compact apparatus (30° C., 350 rpm). The reaction was stopped after incubation (from 0 to 120 min) by addition of 720 μl of chloroform/methanol (1:1). To separate the phases, 280 μl of 1M KCl in 0.2 M H3PO4 were added and the whole mixture was vortexed for 10 s before centrifugation at 1300 g, 5 min at room temperature. The upper aqueous phase was discarded and 2×25 μl of the remaining organic phase was spotted on to silica gel 60 ÅF254 TLC plates (ref. 1.05715, Merck) and developed in chloroform/methanol/NH4OH/water (65:25:0.9:3). The phosphatidic acid spot was visualized by iodine revelation and collected for scintillation counting.
(§2) Radioactivity measurement was performed in 10 mL Ultimagold (ref. 6013329, Perkin Elmer) using a liquid scintillation analyzer (Tri-Carb 2100TR, Packard) for determination of ^3H and ^14C separately.
(§3) […] For all experimental conditions, data are derived from three experiments with 4 replicates each.
(§4) LPAAT selectivity for the two substrates is calculated as follows:
(§5) Selectivity for C18:1-CoA: S^C18:1-CoA=^14C/^3H
(§6) Selectivity for C19CA-CoA: S^C19:1CA-CoA=(^3H—^14C)/^3H
(§7) in which, ^3H and ^14C are the molar quantity of produced PA and the molar quantity of ^14C18:1 incorporated into this PA. These molar quantities are calculated from the corresponding ^3H and ^14C radioactivity levels measured in the phosphatidic acid spots scraped from TLC plates. Selectivity is expressed as the fraction of the specific fatty acid incorporated out of the total incorporated at the sn-2 position.

The target in data set [2] is Litchi sinensis LPAAT (LsLPAAT) (Litchi chinensis, UniProt A0A346D9Z1). The data set is described as above. It is filed as biochemical. As to the method: as §1, §2, §3, §4, §5, §6, §7
Substrate in data set [3]: CCCCCCCC/C=C\CCCCCCCC(=O)SCCNC(=O)CCNC(=O)[C@H](O)C(C)(C)COP(=O)(O)OP(=O)(O)OC[C@H]1O[C@@H](n2cnc3c(N)ncnc32)[C@H](O)[C@@H]1OP(=O)(O)O
Nature of the data set: LPAAT assay, kinetic parameters with C18:1-CoA, E. coli JC201 microsomes. It is filed as biochemical, Litchi sinensis. The settings on record: other: C18:1-CoA 0-50 μM, 10 min, 30° C., pH7.5, N = 5, pH 7.5. Here is the method:
The inventors have identified one putative Lysophosphatidic Acid-Acyl Transferase from Lychee (SEQ ID No 2). They also have obtained a mutated protein derived from this protein, which is depicted as SEQ ID No 1.
Plasmids pEW108 and 117 comprising genes coding for SEQ ID No 1 and SEQ ID No 2 respectively under the control of the araBAD promoter (Guzman, L-M. et al. (1995) J Bacteriology 177: 4121-4130) were prepared and used to transform and complement an E. coli strain. The araBAD promoter is induced by arabinose, repressed by glucose and is used in the art to express polynucleotides in a controlled manner.
The following experiments were performed with the Escherichia coli JC201 mutant strain, which is temperature conditional in endogenous LPAAT activity and able to grow at 30° C. but not at 44° C. (genotype plsC, described in Coleman, 1990 J. Biol. Chem., 265 (28), 17215-21.). These bacteria were kept at −80° C. as 1 ml glycerol stocks. For E. coli JC201 transformation, one glycerol stock was diluted in 15 mL of Luria-Bertani (ref. L3022, Sigma) liquid medium and cultivated overnight at 30° C. […] Optical density was measured at 600 nm and each flask was then cultivated for 6 hours at 30 and 44° C. respectively in order to check by optical density measurement that bacterial growth occurs at 30° C. but not at 44° C. […]

Data set [4] in a line: LPAAT assay with C18:1-CoA as substrate (microsomes of transformed E. coli). It is filed as biochemical. As to conditions: expressed in transformed E. coli mutant strains; FIG. 1. Here is the method: The ^3H-oleoyl-lysophosphatidic acid (^3HLPA, ref. NET1100; 600 μM, 28 mCi mmol^−1) and ^14C-Oleoyl-CoA (^14CC18:1-CoA, ref. NET651A; 300 μM, 11 mCi mmol^−1) radio-labeled substrates were purchased from Perkin Elmer. Assays were carried out in a final volume of 300 μl and contained Tris/HCl (100 mM, pH7.5), Triton X-100 (0.01% w/v), BSA (1 mg/ml), ascorbic acid (10 mM), EDTA (2 mM), 100 μl LPA and 50 μl acyl-CoA. The reaction was started by the addition of 30 μl of microsomes, and conducted in a glass vial placed in a Eppendorf Thermomixer-compact apparatus (30° C., 350 rpm). The reaction was stopped after incubation (from 0 to 120 min) by addition of 720 μl of chloroform/methanol (1:1). […]
as §2
A first LPAAT assay was performed as described above in order to determine optimal LPAAT activity using ^14CC18:1-CoA as substrate: • Effect of incubation time was tested for 0, 1, 3, 5, 10, 30, 60 and 120 min with 50 μM ^14CC18:1-CoA at 30° C. • In order to determine LPAAT kinetic parameters, the effect of C18:1-CoA concentration was tested as described above. […] For all experimental conditions, the mean of 2 values is calculated. […]

Data set [5] is described as follows: Competitive LPAAT assay using C18:1-CoA and C19CA-CoA. It is filed as biochemical. As to conditions: competitive assays using C19CA-CoA and C18:1-CoA. Here is the method: as §1, §2, §3, §4, §5, §6, §7
Where [6] appears, read: 50 μM C18:1-CoA, 25 μM C19CA, fraction of total incorporated at sn-2, read-out: Selectivity for C19CA-CoA in competition with C18:1-CoA.
The mark [7] stands for this setting: 50 μM C18:1-CoA, 50 μM C19CA, fraction of total incorporated at sn-2, read-out: Selectivity for C19CA-CoA in competition with C18:1-CoA.
Setting [8] is: average over the concentrations, read-out: Average selectivity for C19CA-CoA in competition with C18:1-CoA.

Like-named read-outs stand apart in the source and are kept apart here.

Sequence of Brassica napus LPAAT (BnLPAAT) (Q9XFW4 other isoform, or with tags, fused parts or gaps): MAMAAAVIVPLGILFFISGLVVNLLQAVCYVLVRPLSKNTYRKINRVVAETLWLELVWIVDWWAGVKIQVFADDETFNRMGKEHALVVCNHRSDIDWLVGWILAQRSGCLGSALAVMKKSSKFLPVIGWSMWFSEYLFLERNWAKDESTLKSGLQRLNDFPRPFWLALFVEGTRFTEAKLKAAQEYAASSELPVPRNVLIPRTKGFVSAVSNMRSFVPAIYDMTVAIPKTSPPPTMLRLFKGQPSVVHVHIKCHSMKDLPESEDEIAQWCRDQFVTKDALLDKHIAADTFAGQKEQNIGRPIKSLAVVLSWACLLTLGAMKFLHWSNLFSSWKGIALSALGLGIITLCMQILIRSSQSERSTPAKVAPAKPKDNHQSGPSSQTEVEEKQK

Regarding `CCCCCCCCC1CC1CCCCCCCC(=O)SCCNC(=O)CCNC(=O)[C@H](O)C(C)(C)COP(=O)(O)OP(=O)(O)OC[C@H]1O[C@@H](n2cnc3c(N)ncnc32)[C@H](O)[C@@H]1OP(=O)(O)O` (stereo partly shown) [C19CA-CoA], the selectivity ratio in data set [1] (setting [6]) was 0.01; in data set [1] (setting [7]) it was 0.19; in data set [1] (setting [8]) it was 0.054 ± 0.057; in data set [2] (25 μM C18:1-CoA, 10 μM C19CA, fraction of total incorporated at sn-2, read-out: Selectivity for C19CA-CoA in competition with C18:1-CoA) it was 0.15; in data set [2] (25 μM C18:1-CoA, 25 μM C19CA, fraction of total incorporated at sn-2, read-out: Selectivity for C19CA-CoA in competition with C18:1-CoA), 0.34; in data set [2] (setting [6]), 0.28. For the same molecule, the selectivity ratio in data set [2] (setting [7]) came to 0.35; in data set [2] (setting [8]), 0.377 ± 0.101. Moreover, the “Fatty acids incorporated at the sn-2 position being 19:0CA” value in data set [2] (in competition with C18:1-CoA, even at low total concentrations of acyl-CoA) is on record as “up to 35%”.

B1: Litchi sinensis LPAAT (LsLPAAT, pEW117), SEQ ID No 2 (Litchi chinensis) (protein)
chain: MAVAAAAVVVPLGLLFFISGLVVNLFQAVCFVTIRPLSKNLYRRINRVLAELLWLELVWIVDWWAGVKIKLYTDSETFHLMGKEHALVVSNHRSDIDWLVGWVLAQRSGCLGSALAVMKKSSKLLPVIGWSMWFSEYLFLERNWAKDESTLRSGLQRLKDFPKPFWLALFVEGTRFTQAKLLAAQEYATSTGLPIPRNVLIPRTKGFVASVSHMRSFVPAIYDTTVAIPKSSPAPTMLRLFKGQSSVVHVHIKRCLMKDLPETDDTVAQWCRDIFVAKDELLDKHNVEDTFNDGELQDTSRPVKSLLVVTSWACLVVLGALKFLQWSSLLSSWKGIAFSALGLGVVTVLMHILILFSQSERSTPAKVAPAKPKNNGEPSTRSQDKQK
The term Km denotes the concentration of substrate that gives half-maximal velocity. The Vmax is the top rate of the reaction or transport when substrate is in excess. In the case of B1, in data set [3], the Km worked out at 3.6 ± 1.7 µM and the Vmax was 0.000115 µmol/min/mg.

B2: LsLPAAT: L. sinensis LPAAT; clone not stated in Table 2, probably pEW108 / SEQ ID No 1 (protein)
chain: MAVAAAAVVVPLGLLFFISGLVVNLFQAVCFVTIRPLSKNLYRRINRVLAELLWLELVWIVDWWAGVKIKLYTDSETFHLMGKEHALVVSNHRSDIDWLVGWVLAQRSGCLGSALAVMKKSSKLLPVIGWSMWFSEYLFLERNWAKDESTLRSGLQRLKDFPKPFWLALFVEGTRFTQAKLLAAQEYATSTGLPIPRNVLIPRTKGFVASVSHMRSFVPAIYDTTVAIPKSSPAPTMLRLFKGQSSVVHVHIKRCLMKDLPETDDTVAQWCRDIFVAKDELLDKHNVEDTFNDGELQDTSRPVKSLLVVTSWACLVVLGALKFLQWSSLLSSWKGIAFSALGLGVVTVLMHILILFSQSERSTPAKVAPAKPKNNGEPSTRSPAHPK
modifications: synthetic LPAAT derived from litchi
As to B2, in data set [4], the “esterification of 14C-C18:1-CoA on 3H-LPA (presence of PA in lipid fraction)” value is reported as “fully functional”. The “use of C19CA-CoA as substrate” value in data set [5] is on record as “can use C19CA-CoA as substrate”.
